Measured values as given in patent US8410175B2, “Anticancer effect enhancer” (Nippon Kayaku Kabushiki Kaisha, priority 2004, dated 2013).

Legend:
[1] = test system: Murine Lewis lung carcinoma (LLC) cells; experiment: Murine lung cancer model, tumor volume growth; assay type: in vivo; set-up: dose or concentration left out as unconfirmed; details: LLC s.c. in C57BL6 mice; two weeks
Method: Tumor volume was calculated as 0.5×{tumor length (mm)}[…]{tumor width (mm)}^2. The […] was calculated by student t-test.
(§1) Murine Lewis lung carcinoma (LLC) cells, lung adenocarcinoma cells, were obtained from the Tohoku University Cell Resource Center for Biomedical Research and were incubated with DMEM plus 10% fetal bovine serum until cell proliferation was sufficient to perform the experiments. The LLC cells were adjusted to concentrations of 2×10^5 cells/100 μl with phosphate buffer saline (PBS), and were inoculated Six-week-old male C57BL6 mice purchased from Charles River Japan, Inc. (Tokyo, Japan) and Clea Japan, Inc. (Tokyo, Japan) subcutaneously (2×10^5 cells/100 μl/mouse) at the right hypochondrium. Mice were maintained under specific-pathogen-free conditions, and provided with sterile food and water. When transplanted tumors grew to approximately 100 mm^3 in tumor volume, animals were equally divided into four groups (Control group, n=6; C, NO donor group, n=6; N, Chemotherapy group, n=6; CTX, and NO plus chemotherapy group, n=6; N+CTX). Tumor volume was calculated as 0.5×{tumor length (mm)}×{tumor width (mm)}^2. […]

[2] = test system: Colon 26 cells, murine colon cancer cells; experiment: Murine colon cancer model, tumor volume growth; assay type: in vivo; set-up: dose or concentration left out as unconfirmed; details: colon 26 s.c. in BALB/c mice; two weeks
Method: Tumor volume was calculated as 0.5×{tumor length (mm)}×{tumor width (mm)}^2. The P value was calculated by student t-test.
as §1, with “Colon 26” for “Murine Lewis lung carcinoma (LLC)”, “murine colon cancer” for “lung adenocarcinoma”, “RPMI 1640” for “DMEM”, “colon 26” for “LLC”, “female BALB/c” for “male C57BL6”, “subcutanously” for “subcutaneously”

SMILES: O=[N+]([O-])OCC(CO[N+](=O)[O-])O[N+](=O)[O-] [NO donor, nitroglycerin]
- murine tumor volume [1]: rapid tumor growth
- murine tumor volume [2]: rapid tumor growth
